Laboratory results: paper PMC10950498, “Ligands of HMG-like dorsal switch protein 1 of Spodoptera exigua leads to mortality in diamondback moth, Plutellaxylostella” (Heliyon, 2024)

Molecular target: T1, HMG-like dorsal switch protein 1 (rSe-DSP1)
T1 construct: recombinant DSP1 protein (rSe-DSP1)
Assay: thermal shift assay with fitted Kd
Format: binding, Spodoptera exigua

Row | Structure (SMILES) | Kd
1 | O=C1NC(=O)c2ccccc21 [PM, Phthalimide] | 197 µM
2 | CCOc1cc(O)ccc1OC [EMP, 3-Ethoxy-4-Methoxyphenol] | 148 µM
3 | N#Cc1ccccc1C(=O)O [CBA, o-Cyanobenzoic acid] | 246 µM
